The source of these data is patent publication EP1743643A1, “New formulations of substituted pyrazoline compounds” (LABORATORIOS DEL DR. ESTEVE, S.A., priority 2005, dated 2007).

One experiment addresses T1, CB1-Receptor (Homo sapiens, UniProt P21554).
T1 construct: purchased Receptor Biology, Inc
Nature of the experiment: In-vitro determination of affinity to CB1 receptor (radioligand [3H]-CP55940). Type of experiment: binding. How it is done: (§1) The in-vitro determination of the affinity of the inventive substituted pyrazoline compounds to CB1/CB2-Rezeptors is carried out as described in the publication of Ruth A. Ross, Heather C. Brockie et al., "Agonist-inverse agonist characterization at CB1 and CB2 cannabinoid receptors of L-759633, L759656 and AM630", British Journal of Pharmacology, 126, 665-672, (1999), whereby the transfected human CB1 and CB2 receptors of Receptor Biology, Inc. are used. The radioligand used for both receptors is [^3H]-CP55940. The respective parts of the description is hereby incorporated by reference and forms part of the present disclosure.
(§2) The affinity of the inventive substituted pyrazoline compounds to CB1/CB2 receptors was determined as described above.

A further experiment addresses T2, CB2-Receptor (Homo sapiens, UniProt P34972).
T2 construct: purchased Receptor Biology, Inc
Nature of the experiment: In-vitro determination of affinity to CB2 receptor (radioligand [3H]-CP55940). Format: binding. How it is done:
as §1, §2

The subject of the next experiment is male mice B6 Lep ob/ob. Nature of the experiment: In-vivo testing for regulation of triglycerides in blood, obese mice on high fat diet. As to conditions: for triglicerides blood levels (result in words): obese mice fed with high fat diet. The text has this: The study was done using six weeks old male mice B6 Lep ob/ob, obtained from Charles River (France). Mice were divided in 3 groups : I (control), II (vehicle), III (example 0).
The animals of the group I received the standard diet (D-12450B, Research Diets, NJ, USA).
The animals of the groups II and III were fed with a High Fat Diet (D-12492, Research Diets, NJ, USA), in both cases for 7 weeks (References 1 and 2).
The animals of the groups III were fed with a High Fat Diet (D-12492, Research Diets, NJ, USA), in both cases for 7 weeks (References 1 and 2).
At the end of the feeding period of 7 weeks, it was started the treatment period (14 days): Group II mice received the vehicle (10 ml/kg/day, po, of the aqueous solution of acacia gum, 5% WN). Group III was administered with 30 mg/kg/day, po, of the inventive compound 5-(4-chlorophenyl)-1-(2,4-dichlorophenyl)-4,5-dihydro-pyrazole-3-carboxylic acid according to Example 0. Group I didn't received any treatment. The three groups of mice had the same diet than in the previous period.
At the end of the 14 days period of treatment, the blood levels of triglicerides of the animals were determined.
The analysis of the whole blood samples was done using test strips "Lipid panel" and the photometric Analyzer Cardio-Check Test System, from PA Instruments Polymer Technology Systems Indianapolis, IN-46268, USA (Distributed in Spain by Novalab Iberica S.A.L, Madrid, Spain).

Each structure is given as a SMILES string.

T2 sequence (P34972 whole entry): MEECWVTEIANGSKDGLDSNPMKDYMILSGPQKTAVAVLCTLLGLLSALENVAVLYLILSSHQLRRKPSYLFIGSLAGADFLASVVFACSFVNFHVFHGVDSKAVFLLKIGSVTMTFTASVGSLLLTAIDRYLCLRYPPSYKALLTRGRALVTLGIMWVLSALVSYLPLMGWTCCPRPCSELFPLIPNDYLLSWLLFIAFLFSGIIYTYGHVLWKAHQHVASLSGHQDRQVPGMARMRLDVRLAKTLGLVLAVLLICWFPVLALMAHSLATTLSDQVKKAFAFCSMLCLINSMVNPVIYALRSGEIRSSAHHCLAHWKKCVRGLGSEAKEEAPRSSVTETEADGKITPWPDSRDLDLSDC
T1 sequence (P21554 whole entry): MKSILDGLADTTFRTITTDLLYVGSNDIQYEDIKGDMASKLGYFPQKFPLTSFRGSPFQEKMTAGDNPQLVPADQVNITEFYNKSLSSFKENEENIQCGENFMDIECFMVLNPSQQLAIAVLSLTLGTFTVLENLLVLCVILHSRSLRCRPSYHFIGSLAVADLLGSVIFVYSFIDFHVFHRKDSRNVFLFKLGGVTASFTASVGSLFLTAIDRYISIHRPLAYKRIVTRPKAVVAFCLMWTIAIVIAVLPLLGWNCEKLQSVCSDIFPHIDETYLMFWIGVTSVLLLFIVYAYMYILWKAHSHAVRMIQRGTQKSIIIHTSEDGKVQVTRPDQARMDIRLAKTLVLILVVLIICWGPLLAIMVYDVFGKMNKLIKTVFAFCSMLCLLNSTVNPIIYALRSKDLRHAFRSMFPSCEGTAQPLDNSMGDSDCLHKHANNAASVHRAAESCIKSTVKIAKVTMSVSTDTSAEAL

As for `O=C(NN1CCCCC1)C1=NN(c2ccc(Cl)cc2Cl)C(c2ccc(Cl)cc2)C1` (stereo not shown) [Example 1, N-piperidinyl-5-(4-chlorophenyl)-1-(2,4-dichlorophenyl)-4,5-dihydro-1H-pyrazole-3-carboxamide], the inhibitory constant (Ki) – broadly, a measure of affinity in units of concentration, obtained from inhibition or displacement – on CB1-Receptor was below 25 nM; on CB2-Receptor, above 1000 nM.

Take `O=C(O)C1=NN(c2ccc(Cl)cc2Cl)C(c2ccc(Cl)cc2)C1` (stereo not shown) [Example 0, 5-(4-chlorophenyl)-1-(2,4-dichlorophenyl)-4,5-dihydro-pyrazole-3-carboxylic acid]: the “Triglicerides, whole blood levels (mg/dl)” value in the experiment on male mice B6 Lep ob/ob (High Fat diet, 30 mg/kg/day po, 14 days of treatment, B6 Lep ob/ob mice) is reported as 67.5 (N.S.) mg/dl. The figures for the “triglicerides blood levels (result in words)” value in the experiment with male mice B6 Lep ob/ob and in the experiment on male mice B6 Lep ob/ob (listed as Example 8) were “inhibitor of high blood levels of triglicerides” and “improved the triglicerides blood levels”, respectively. Also, the Relative levels with male mice B6 Lep ob/ob (triglicerides relative to Group I (standard diet, 100%), High Fat diet, 30 mg/kg/day po, 14 days) is recorded as 110.6%.

In the case of `O=C(C1=NN(c2ccc(Cl)cc2Cl)C(c2ccc(Cl)cc2)C1)N1CCCCC1` (stereo not shown) [Example 5, [5-(4-Chloro-phenyl)-1-(2,4-dichloro-phenyl)-4,5-dihydro-1H-pyrazol-3-yl]-piperidin-1-yl-methanone], the Ki on CB2-Receptor is around 1000 nM.
